Tests used:
[1] = Plasma protein binding by equilibrium dialysis, human plasma; format: in vitro ADME; conditions: pH 7.4, 37° C., read-out: plasma protein binding (% Bound)
Experimental: (§1) Membranes from Harvard/Amika with a molecular weight cutoff of 5,000 were rinsed with dH2O then placed in pH 7.4 PBS supplied by Gibco. The membranes were allowed to soak for 1 hour. A stock of the test article was pooled with Warfarin, Atropine at 2 mM in DMSO. The test article was then dosed into human plasma in sodium citrate, Rat Plasma, and Mouse Plasma to a final 10 μM concentration (0.5% DMSO v/v).
(§2) The pre-soaked membranes were then placed into dialysis chambers. 500 μL of PBS was added to one side of the chamber, and 500 μL of the Matrix containing the test article was added to the other side of the chamber. The chambers were then placed into an enclosed, heated rocker, which was pre-warmed to 37° C. and allowed to reach equilibrium for at least 22 hours. After 22 hours both sides were sampled. 100 μL of the donor side was added to 500 μL of PBS. 100 μL of the PBS side was added to 20 μL of fresh matrix. Samples then were crashed with 1:1 Acetonitrile and centrifuged at 10,000 RPM for 10 minutes. […]
(§3) Standards were prepared in a 1:5 plasma:PBS mixture at 5, 1.5, 0.5, 0.15, 0.05, 0.015 and 0.005 μM concentrations. […] Protein binding values were calculated as follows: % Bound=[(Concentration in Donor−Concentration in Receiver)/(Concentration in Donor)]×100. % Recovery=[(Concentration in donor+Concentration in Receiver)]/(Concentration in Normal Initial)]×100

Sprague-Dawley male rats = test: Thermal hyperalgesia (carrageenan, paw withdrawal latency); format: in vivo; conditions: rat, 30 mg/kg, two hours after administration
Experimental: Sprague-Dawley male rats obtained from Charles River, San Diego, Calif. were purchased at 150-175 g, and held for at least one week before testing. Pain was induced by injecting 100 μl of 2% carrageenan in 0.9% saline sub-Q into the right ventral hindpaw while the animals were under isofluorane anesthesia. Animals were then dosed one hour after with a concentration of 30 mg/kg of Compound 1. Two hours later, after acclimatizing in testing chambers for 20-30 minutes, animals were tested on both hindpaws for latency of paw withdrawal using a thermal testing apparatus. 2-3 trials were conducted with 10 minutes between trials. […] The figure depicts the time in seconds until animals withdraw from thermal stimulation at baseline and two hours after administration of delivery vehicle, control compound, and the dose of 30 mg/kg of Compound 1.

[2] = Plasma protein binding by equilibrium dialysis, rat plasma; format: in vitro ADME; conditions: pH 7.4, 37° C., read-out: plasma protein binding (% Bound)
Experimental: as §1, §2, §3

HsVR1 = target: T1, HsVR1 (Homo sapiens, UniProt Q8NER1); test: Two-electrode voltage clamp recording of capsaicin induced VR1 current in Xenopus oocytes; format: cell-based; conditions: 250 nM capsaicin induced current; Xenopus oocytes injected with HsVR1 RNA; read-out: EPHYS IC50
T1 construct: expressed in transfected cells; host or cells: Xenopus oocytes injected with HsVR1 RNA
Experimental: Xenopus ovaries obtained from NASCO were isolated by enzymatic dissociation using collagenase (Worthington, 2 mg/ml). Oocytes were then individually injected with HsVR1 RNA (0.5 μg/μl). Injected oocytes are stored in standard oocyte incubation solution, ND96, containing 96 mM NaCl, 2 mM KCl, 1 mM MgCl2, 0.3 mM CaCl2 and 50 µg/ml Gentamicin at 16° C. Capsaicin induced VR1 current is observed in oocytes 4-5 days after injection. Eight oocytes are placed in the recording chambers. Each oocyte is impaled by 2 glass electrodes having resistances of 0.5 to 1 MOhm when filled with a 3 M KCl solution. Electrode advancement and oocyte impalement are under software control (OpusXpress 1.1, Axon Instruments). VR1 expression in the oocytes is verified using 250 nM capsaicin. Test solution delivery to the oocytes during the experiment is also under software control. The solutions are prepared in 96 well plates and robotically pipetted into the oocyte recording chambers by an 8 channel pipetter. Oocytes are exposed to several 250 μl applications of 250 nM capsaicin until a stable current amplitude is obtained with each application. A set of 96 well plates containing the test solutions is prepared so that the sequence of solution application to the oocyte is as follows: 250 μls of 250 nM capsaicin is followed by a several minute wash with standard oocyte saline. 1 ml of the test compound is then added at a particular test concentration, followed immediately by 250 μl of the compound at the same concentration plus 250 nM capsaicin. The capsaicin induced VR1 current is recorded in the presence and absence of test compound for each concentration. The standard test concentrations range from 0.3 to 2000 nM. Quantitative measurement of VR1 current block was carried out by calculating the area under the curve described by the inward current. The resulting numbers for capsaicin induced currents in the presence of increasing compound concentration are normalized to the maximum current obtained. These points are then plotted on a logarithmic scale and fitted by a Hill function. The IC50 values for each compound tested were then calculated from the resulting Hill fit. All compounds that inhibited capsaicin induced current greater than 50% were considered positives.

hVR1 = hVR1 (Homo sapiens, UniProt Q8NER1); test: Calcium imaging assay (Fura2) of VR1 antagonists, proton stimulation; format: cell-based; conditions: HEK 293 cells expressing hVR1; for % Inhibition @ 1 μM: calcium ion influx induced by proton stimulation (pH 5.7); for IC50: calcium ion influx induced by proton stimulation
Outline: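 HEK293 cells expressing capsaicin-insensitive hVR1 were loaded with Fura2 (5 μg/mL, 37 °C, 40 min). Compound was added, then compound plus acid agonist (10 mM citric acid, pH 5.7), with the 340/380 nm ratio read every 4 s for 3 min. Peak-minus-baseline response gave % inhibition and an ID50 from dose-response curves.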

[3] = Pharmacokinetic profile after intravenous and oral administration; format: in vivo; conditions: rat, IV 1 mg/kg, oral 5 mg/kg; for Cmax / Tmax / Vd / bioavailability: male, Sprague-Dawley, plasma
Experimental: The pharmacokinetic profile of Compound 1 was evaluated following intravenous and oral administration in rats. Sprague-Dawley male rats obtained from Charles River, San Diego, Calif. were acclimated for 24 hours.
Compounds of this invention were formulated at a concentration of 0.5 mg/mL for IV administration at a 1 mg/kg dose and 1 mg/mL for oral administration at a 5 mg/kg dose. All animals were weighed before dosing. The body weight was used to calculate the actual dose for each animal. The intravenous dose was administered through the jugular vein catheter in less than 1 minute. The oral dose volume was 1.5 mL for all PO rats administered through oral lavage.
For IV dosing, blood samples were collected using a pre-heparinized syringe via the carotid artery catheter before dosing and at t=2, 5, 15, 30, 60, 120, 180, 360, and 480 minutes post dosing. For PO dosing, blood samples were collected using a pre-heparinized syringe via the carotid artery catheter before dosing and at t=5, 15, 30, 60, 120, 180, 360, and 480 minutes post dosing. 250 uL of blood was obtained at each time point from each animal. Equal volumes of 0.9% normal saline were replaced to prevent dehydration. The whole blood samples were maintained on ice until centrifugation. Blood samples were centrifuged at 14,000 rpm for 10 minutes at 4° C., and the upper plasma layer was transferred into a clean vial and store at −80° C.

T1 sequence (Q8NER1 whole entry): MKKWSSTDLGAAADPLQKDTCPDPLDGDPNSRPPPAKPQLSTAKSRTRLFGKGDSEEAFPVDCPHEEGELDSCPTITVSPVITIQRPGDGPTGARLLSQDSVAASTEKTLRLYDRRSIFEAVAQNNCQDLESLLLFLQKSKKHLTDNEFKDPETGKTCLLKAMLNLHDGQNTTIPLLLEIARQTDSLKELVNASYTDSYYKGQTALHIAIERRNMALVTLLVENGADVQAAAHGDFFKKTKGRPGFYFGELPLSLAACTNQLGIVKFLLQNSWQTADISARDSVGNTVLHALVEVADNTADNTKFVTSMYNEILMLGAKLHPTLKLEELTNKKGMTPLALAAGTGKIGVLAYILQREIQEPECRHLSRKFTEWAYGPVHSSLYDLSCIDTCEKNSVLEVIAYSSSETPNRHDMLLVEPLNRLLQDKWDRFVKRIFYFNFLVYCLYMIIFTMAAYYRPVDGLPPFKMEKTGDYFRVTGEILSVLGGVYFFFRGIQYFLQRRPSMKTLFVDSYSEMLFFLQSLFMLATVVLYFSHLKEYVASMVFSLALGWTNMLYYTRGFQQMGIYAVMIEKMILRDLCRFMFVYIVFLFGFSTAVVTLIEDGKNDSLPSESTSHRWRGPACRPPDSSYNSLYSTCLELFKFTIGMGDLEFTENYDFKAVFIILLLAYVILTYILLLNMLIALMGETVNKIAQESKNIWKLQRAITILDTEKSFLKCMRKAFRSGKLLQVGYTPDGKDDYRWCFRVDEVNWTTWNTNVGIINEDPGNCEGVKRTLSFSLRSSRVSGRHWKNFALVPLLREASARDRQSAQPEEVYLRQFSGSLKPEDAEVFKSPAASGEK
hVR1, sequence (Q8NER1 whole entry): as above

## FC(F)(F)c1ccc(Nc2ncnc3c2CCN(c2ncccc2Cl)C3)cc1 [Compound 1]
[1]
  fraction unbound at 22 h, 10 μM: < 0.001
Sprague-Dawley male rats
  latency of paw withdrawal (reversal of thermal hyperalgesia): significantly increased latency of paw withdrawal
[2]
  fraction unbound at 22 h, 10 μM: < 0.001

## FC(F)(F)c1ccc(Nc2ncnc3c2CCN(c2ncccc2Cl)C3)cc1 [Example 1, 7-(3-Chloropyridin-2-yl)-N-(4-(trifluoromethyl)phenyl)-5,6,7,8-tetrahydropyrido[3,4-d]pyrimidin-4-amine]
HsVR1
  IC50: 101 to 500 nM
hVR1
  % Inhibition @ 1 μM: ++++ (compound exhibited 76% or greater inhibition of calcium ion influx induced by proton stimulation)
  IC50: 101 to 500 nM
[3]
  Cmax: 1380 ng/mL
  Tmax: 1.01 h
  Vd: 1.28 L/kg
  bioavailability: 37%
  Cls (L/hrKg): 0.34 L/hrKg
  T/2: 2.52 h

## CS(=O)(=O)c1cccnc1N1CCc2c(ncnc2Nc2ccc(C(F)(F)F)cc2)C1 [Example 9, [7-(3-Methanesulfonyl-pyridin-2-yl)-5,6,7,8-tetrahydro-pyrido[3,4-d]pyrimidin-4-yl]-(4-trifluoromethyl-phenyl)-amine]
HsVR1
  IC50: 101 to 500 nM
hVR1
  % Inhibition @ 1 μM: ++++ (compound exhibited 76% or greater inhibition of calcium ion influx induced by proton stimulation)
  IC50: 101 to 500 nM
[3]
  Cmax: 156 ng/mL
  Tmax: 1.67 h
  Vd: 13 L/kg
  bioavailability: 47.9%
  Cls (L/hrKg): 1.99 L/hrKg
  T/2: 4.37 h

## N#Cc1nc2c(c(Nc3ccc(C(F)(F)F)cc3)n1)CCN(c1ncccc1Cl)C2 [Example 37, 4-(4-(Trifluoromethyl)phenylamino)-7-(3-chloropyridin-2-yl)-5,6,7,8-tetrahydropyrido[3,4-d]pyrimidine-2-carbonitrile]
HsVR1
  IC50: 101 to 500 nM
hVR1
  % Inhibition @ 1 μM: ++++ (compound exhibited 76% or greater inhibition of calcium ion influx induced by proton stimulation)
[3]
  Cmax: 49.4 ng/mL
  Tmax: 3.33 h
  Vd: 12.4 L/kg
  bioavailability: 17.9%
  Cls (L/hrKg): 4.02 L/hrKg
  T/2: 2.15 h

## Cc1cccc(N2CCc3c(ncnc3Nc3ccc(C(F)(F)F)cc3)C2)c1 [Example 46, 7-(m-Tolyl)-N-(4-(trifluoromethyl)phenyl)-5,6,7,8-tetrahydropyrido[3,4-d]pyrimidin-4-amine]
HsVR1
  IC50: 501 to 1000 nM
hVR1
  % Inhibition @ 1 μM: + (compound exhibited 0-25% inhibition of calcium ion influx induced by proton stimulation)
  IC50: > 1000 nM

## CCOc1nc2c(c(Nc3ccc(C(F)(F)F)cc3)n1)CCN(c1ncccc1Cl)C2 [Example 48, 7-(3-Chloropyridin-2-yl)-2-ethoxy-N-(4-(trifluoromethyl)phenyl)-5,6,7,8-tetrahydropyrido[3,4-d]pyrimidin-4-amine]
HsVR1
  IC50: < 100 nM
hVR1
  % Inhibition @ 1 μM: ++++ (compound exhibited 76% or greater inhibition of calcium ion influx induced by proton stimulation)
  IC50: 101 to 500 nM

## CCOc1nc2c(c(Nc3ccc(C(F)(F)F)cc3)n1)CCN(c1ncccc1S(C)(=O)=O)C2 [Example 64, 2-Ethoxy-N-(4-(trifluoromethyl)phenyl)-5,6,7,8-tetrahydro-7-(3-(methylsulfonyl)pyridin-2-yl)pyrido[3,4-d]pyrimidin-4-amine]
HsVR1
  IC50: 101 to 500 nM
hVR1
  % Inhibition @ 1 μM: +++ (compound exhibited 51-75% inhibition of calcium ion influx induced by proton stimulation)
  IC50: 501 to 1000 nM

Source: patent US7312330B2, “Bicycloheteroarylamine compounds as ion channel ligands and uses thereof” (Renovis, Inc., priority 2003, dated 2007)
